For data set [1], the system named is CAKI-1. Nature of the data set: Antiproliferative activity against human CAKI-1 cells assessed as cell growth inhibition at 10 uM by SRB assay. The format is functional. The arrangement: scale not given: the % may be the effect or the level left. For orientation: The SRB assay estimates cell density from bound dye.
In data set [2] the test system is NCI-H460. Put plainly: Antiproliferative activity against human NCI-H460 cells assessed as cell growth inhibition at 10 uM by SRB assay. It counts as functional. Also on record: scale not given: the % may be the effect or the level left.
In data set [3] the test system is SN12C. Nature of the data set: Antiproliferative activity against human SN12C cells assessed as cell growth inhibition at 10 uM by SRB assay. It counts as functional. The arrangement: scale not given: the % may be the effect or the level left.
The subject of data set [4] is DNA. Put plainly: Induction of ROS-mediated DNA (unknown origin) assessed as efficiency of ICL formation preincubated with compounds followed by H2O2 addition relative to control. It counts as functional.
In data set [5] the test system is SR. Nature of the data set: Antiproliferative activity against human SR cells assessed as cell growth inhibition at 10 uM by SRB assay. The format is functional. Also on record: scale not given: the % may be the effect or the level left.
Data set [6] relates to DNA. Put plainly: Induction of ROS-mediated DNA (unknown origin) ICL formation by measuring rate constant preincubated with compounds followed by H2O2 addition. It counts as functional.
Data set [7] concerns HeLa. Put plainly: Antiproliferative activity against human HeLa cells assessed as cell growth inhibition at 12.5 uM relative to control. Also on record: scale not given: the % may be the effect or the level left. It counts as functional.
In data set [8] the test system is UO-31. Put plainly: Antiproliferative activity against human UO-31 cells assessed as cell growth inhibition. It counts as functional.
Data set [9] relates to MDA-MB-468. Put plainly: Antiproliferative activity against human MDA-MB-468 cells assessed as cell growth inhibition. It counts as functional.
The subject of data set [10] is SNB-75. Put plainly: Antiproliferative activity against human SNB-75 cells assessed as cell growth inhibition. The format is functional.
The test system of data set [11] is HOP-92. Put plainly: Antiproliferative activity against human HOP-92 cells assessed as cell growth inhibition. The format is functional.
Data set [12] concerns SF-268. Put plainly: Antiproliferative activity against human SF-268 cells assessed as cell growth inhibition. The format is functional.
The subject of data set [13] is NCI-H23. Nature of the data set: Antiproliferative activity against human NCI-H23 cells assessed as cell growth inhibition. It counts as functional.
Data set [14] has as its system MCF7. Nature of the data set: Antiproliferative activity against human MCF7 cells assessed as cell growth inhibition. It counts as functional.
Data set [15] concerns SF-539. Nature of the data set: Antiproliferative activity against human SF-539 cells assessed as cell growth inhibition. It counts as functional.
For data set [16], the system named is DU-145. Nature of the data set: Antiproliferative activity against human DU-145 cells assessed as cell growth inhibition. It counts as functional.
Data set [17] relates to RXF 393. Nature of the data set: Antiproliferative activity against human RXF 393 cells assessed as cell growth inhibition. It counts as functional.
The subject of data set [18] is SR. Put plainly: Antiproliferative activity against human SR cells assessed as cell growth inhibition. It counts as functional.
Data set [19] deals with NCI-H460. Put plainly: Antiproliferative activity against human NCI-H460 cells assessed as cell growth inhibition. It counts as functional.
In data set [20] the test system is LOX IMVI. Put plainly: Antiproliferative activity against human LOX IMVI cells assessed as cell growth inhibition. It counts as functional.
Data set [21] has as its system CAKI-1. Put plainly: Antiproliferative activity against human CAKI-1 cells assessed as cell growth inhibition. The format is functional.
Data set [22] has as its system UACC-62. Put plainly: Antiproliferative activity against human UACC-62 cells assessed as cell growth inhibition. The format is functional.
The subject of data set [23] is MOLT-4. Put plainly: Antiproliferative activity against human MOLT-4 cells assessed as cell growth inhibition. The format is functional.
Data set [24] concerns M14. Nature of the data set: Antiproliferative activity against human M14 cells assessed as cell growth inhibition. The format is functional.
The test system of data set [25] is CCRF-CEM. Nature of the data set: Antiproliferative activity against human CCRF-CEM cells assessed as cell growth inhibition. It counts as functional.
In data set [26] the test system is NCI-H522. Nature of the data set: Antiproliferative activity against human NCI-H522 cells assessed as cell growth inhibition. It counts as functional.
In data set [27] the test system is SF-295. Put plainly: Antiproliferative activity against human SF-295 cells assessed as cell growth inhibition. It counts as functional.
The subject of data set [28] is 786-0. Nature of the data set: Antiproliferative activity against human 786-0 cells assessed as cell growth inhibition. It counts as functional.
Data set [29] relates to HL-60(TB). Nature of the data set: Antiproliferative activity against human HL-60(TB) cells assessed as cell growth inhibition. The format is functional.
In data set [30] the test system is UACC-257. Nature of the data set: Antiproliferative activity against human UACC-257 cells assessed as cell growth inhibition. It counts as functional.
Data set [31] concerns ACHN. Nature of the data set: Antiproliferative activity against human ACHN cells assessed as cell growth inhibition. The format is functional.
Data set [32] relates to A549. Nature of the data set: Antiproliferative activity against human A549 cells assessed as cell growth inhibition. It counts as functional, cell-based.
The target in data set [33] is Matrix metalloproteinase-9 (Homo sapiens, UniProt P14780). Nature of the data set: Inhibition of MMP9 (unknown origin).
The nature of data set [34]: Permeability of compound by PAMPA assay. The format is ADME. As to conditions: read-out: permeability. A general note: The PAMPA barrier holds no transporters, so it reflects passive diffusion.
Data set [35] can be described thus: Oral bioavailability in C57BL/6 mouse. It counts as ADME, organism-based. As to conditions: in vivo.
Data set [36] deals with Keap1/Nrf2 (Homo sapiens, UniProt Q14145+Q16236). Nature of the data set: Inhibition of Keap1-Nrf2 (unknown origin). It counts as protein assay.
Data set [37] is described as follows: Activation of Nrf2-ARE pathway in LPS-induced human HepG2-ARE-C8 cells. The format is cell-based.
Data set [38] has as its system 4T1. Nature of the data set: Antiproliferative activity against mouse 4T1 cells assessed as cell growth inhibition. It counts as functional, cell-based.
The subject of data set [39] is HeLa. Nature of the data set: Antiproliferative activity against human HeLa cells assessed as cell growth inhibition at 2 uM relative to control. Also on record: scale not given: the % may be the effect or the level left. It counts as functional.
In data set [40] the test system is A549. Nature of the data set: Antitumor activity against human A549 tumor spheroid cells assessed as reduction in size of tumor spheroid measured after 3 days by fluorescence microscopic analysis relative to control. It counts as functional. Also on record: scale not given: the % may be the effect or the level left. The settings on record: time 3 day.
The subject of data set [41] is KB. Nature of the data set: Antiproliferative activity against human KB cells assessed as cell growth inhibition at 5 uM relative to control. The arrangement: scale not given: the % may be the effect or the level left. It counts as functional.
The test system of data set [42] is WI-38. Nature of the data set: Cytotoxicity against human WI-38 cells assessed as cell growth inhibition at 5 uM relative to control. The format is functional. The arrangement: scale not given: the % may be the effect or the level left.
Data set [43] has as its system MIA PaCa-2. Put plainly: Antiproliferative activity against human MIA PaCa-2 cells assessed as cell growth inhibition. The format is functional, cell-based.
Data set [44] is described as follows: Cytotoxicity against human HEK293T cells assessed as cell growth inhibition.

pEC50, pIC50: −log10 of the molar value.

Matrix metalloproteinase-9, sequence (P14780 whole entry, the tested form may be a part): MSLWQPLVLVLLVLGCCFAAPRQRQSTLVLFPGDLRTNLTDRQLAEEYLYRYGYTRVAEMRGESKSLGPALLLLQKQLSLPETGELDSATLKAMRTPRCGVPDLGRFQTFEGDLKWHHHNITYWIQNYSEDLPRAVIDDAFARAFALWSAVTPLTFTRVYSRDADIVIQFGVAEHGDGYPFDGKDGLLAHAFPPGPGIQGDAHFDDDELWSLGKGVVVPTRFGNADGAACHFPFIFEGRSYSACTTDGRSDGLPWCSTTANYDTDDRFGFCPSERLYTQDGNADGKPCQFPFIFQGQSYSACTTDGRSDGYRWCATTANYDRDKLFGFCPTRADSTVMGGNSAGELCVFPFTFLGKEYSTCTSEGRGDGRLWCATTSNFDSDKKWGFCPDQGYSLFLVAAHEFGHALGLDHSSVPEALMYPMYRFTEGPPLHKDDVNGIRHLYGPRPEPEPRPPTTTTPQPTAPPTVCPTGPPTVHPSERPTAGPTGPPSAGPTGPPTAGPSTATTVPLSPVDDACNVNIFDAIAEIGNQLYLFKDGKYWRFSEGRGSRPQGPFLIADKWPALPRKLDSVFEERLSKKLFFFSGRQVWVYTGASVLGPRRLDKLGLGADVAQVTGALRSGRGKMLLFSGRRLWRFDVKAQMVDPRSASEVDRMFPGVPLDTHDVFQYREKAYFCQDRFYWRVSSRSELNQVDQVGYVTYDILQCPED
Keap1/Nrf2, sequence (Q16236 whole entry): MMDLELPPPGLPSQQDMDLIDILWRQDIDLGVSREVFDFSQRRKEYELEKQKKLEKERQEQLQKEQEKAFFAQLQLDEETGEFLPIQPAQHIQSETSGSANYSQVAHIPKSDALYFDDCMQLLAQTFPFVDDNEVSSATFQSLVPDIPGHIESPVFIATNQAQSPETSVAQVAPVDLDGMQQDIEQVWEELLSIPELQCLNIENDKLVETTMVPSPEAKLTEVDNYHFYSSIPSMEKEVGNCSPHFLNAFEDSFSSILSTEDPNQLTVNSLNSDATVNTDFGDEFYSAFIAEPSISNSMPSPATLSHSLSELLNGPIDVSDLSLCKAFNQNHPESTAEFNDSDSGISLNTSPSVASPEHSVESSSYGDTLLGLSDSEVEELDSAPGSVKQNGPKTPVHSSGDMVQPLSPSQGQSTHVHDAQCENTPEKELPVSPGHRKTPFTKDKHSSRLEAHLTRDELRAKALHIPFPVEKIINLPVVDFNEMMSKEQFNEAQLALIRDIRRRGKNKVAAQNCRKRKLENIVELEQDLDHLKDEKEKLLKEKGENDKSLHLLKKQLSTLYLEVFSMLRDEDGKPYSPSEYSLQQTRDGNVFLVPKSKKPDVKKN
Keap1/Nrf2, sequence (Q14145 whole entry): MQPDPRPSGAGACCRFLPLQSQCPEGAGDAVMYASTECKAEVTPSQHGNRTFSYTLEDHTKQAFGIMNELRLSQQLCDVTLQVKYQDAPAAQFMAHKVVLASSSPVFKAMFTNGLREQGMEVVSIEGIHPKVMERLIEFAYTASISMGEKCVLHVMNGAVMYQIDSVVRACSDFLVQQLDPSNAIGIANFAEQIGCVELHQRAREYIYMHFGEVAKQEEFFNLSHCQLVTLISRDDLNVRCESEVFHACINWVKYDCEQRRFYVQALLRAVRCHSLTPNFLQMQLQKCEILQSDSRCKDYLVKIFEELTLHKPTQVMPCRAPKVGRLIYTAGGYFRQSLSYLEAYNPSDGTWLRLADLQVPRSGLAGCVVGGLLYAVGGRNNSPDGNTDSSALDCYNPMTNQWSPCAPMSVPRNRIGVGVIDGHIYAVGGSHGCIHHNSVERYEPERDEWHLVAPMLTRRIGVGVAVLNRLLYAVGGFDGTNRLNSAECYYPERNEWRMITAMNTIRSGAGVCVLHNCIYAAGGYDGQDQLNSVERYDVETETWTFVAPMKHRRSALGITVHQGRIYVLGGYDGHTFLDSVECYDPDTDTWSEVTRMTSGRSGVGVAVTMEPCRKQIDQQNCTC

With `CC1(C)OB(c2ccc(C[N+](C)(CCCl)CCCl)cc2)OC1(C)C.[Br-]`, the Activity in data set [1] is 66%; in data set [2], 85%; in data set [3], 57%; in data set [4] it was 43%; in data set [5], 90%. In data set [6], the K is 4.6 10^-5/s.
As for `COC(=O)[C@]1([Se]c2ccccc2)C[C@]2(C)C(=O)[C@]1(C)C(c1ccccc1)=C2c1ccccc1`, the Activity entry in [7] was “<=80%”.
In the case of `CC1(C)OB(c2ccc(COC(=O)Nc3ccc(N(CCCl)CCCl)cc3)cc2)OC1(C)C`, the GI50 in [8], in [9], in [10], in data set [11], in [12] and in [13] was below 1000 nM throughout. Moreover, the GI50 in [14], in [15], in [16], in data set [17], in [18] and in data set [19] was below 1000 nM in each case. The GI50 in data set [20], in [21], in data set [22], in data set [23], in data set [24] and in data set [25] was below 1000 nM each time. Also, the GI50 in [26], in data set [27], in data set [28], in data set [29], in data set [30] and in data set [31] was below 1000 nM in each case. Besides, in data set [32], the GI50 was below 1000 nM. Moreover, the Activity in data set [4] amounted to 47%.
Take `CC1(C)OB(c2ccc(COn3c(C(=O)NCc4ccc(-c5ccccc5)cc4)cccc3=O)cc2)OC1(C)C`: the pIC50 is below 3.00 in [33] and 7.01 in [36]. Moreover, the Papp in data set [34] amounted to 6.35 ×10⁻⁶ cm/s. In addition, the bioavailability in [35] amounted to 68.1%. For the same compound, in data set [37], the pEC50 was 6.49.
Take `CCCCC/C=C\C/C=C\CCCCCCCC(=O)OCCOC(=O)CSCC(=O)OC(C(=O)OC1C[C@@]2(O)[C@@H](OC(=O)c3ccccc3)[C@@H]3[C@]4(OC(C)=O)CO[C@@H]4C[C@H](O)[C@@]3(C)C(=O)[C@H](OC(C)=O)C(=C1C)C2(C)C)C(NC(=O)c1ccccc1)c1ccccc1` (stereo partly drawn): the pIC50 was 6.90 in [38] and 6.75 in [32].
For `COc1cccc2c1C(=O)c1c(O)c3c(c(O)c1C2=O)C[C@@](O)(C(=O)CO)C[C@@H]3O[C@H]1C[C@H](N)[C@H](O)[C@H](C)O1` [DOXORUBICIN], the Activity in data set [39] was 20%.
Regarding `CC1(C)OB(c2ccc(COc3c(C(=O)NCc4ccc(-c5ccccc5)cc4)occc3=O)cc2)OC1(C)C`, the pIC50 in data set [33] was below 3.00.
With `O=C(CCCCCCC(=O)Nc1ccccc1)NO` [VORINOSTAT], the Activity in data set [40] amounted to 50%.
Turning to `CCN(CC)c1ccc2c(c1)Oc1cc(OCc3ccc(B4OC(C)(C)C(C)(C)O4)cc3)c(COC(=O)OC3(CC)C(=O)OCc4c3cc3n(c4=O)Cc4cc5ccccc5nc4-3)cc1C21c2ccccc2CN1CCNC(=O)CCC(NC(=O)c1ccc(NCc2cnc3[nH]c(N)nc(=O)c3n2)cc1)C(=O)O` (stereo not drawn), the Activity in data set [41] is reported as 70%; in [42], 100%.
For the compound `COc1cccc2c1C(=O)c1c(O)c3c(c(O)c1C2=O)C[C@@](O)(C(=O)CO)C[C@@H]3O[C@H]1C[C@H](NC(=O)OCc2ccc(B3OC(C)(C)C(C)(C)O3)cc2)[C@H](O)[C@H](C)O1`, the pIC50 in data set [43] is 6.52.
In the case of `CC1(C)OB(c2ccc(COC(=O)ONC(=O)CCCCCCC(=O)Nc3ccccc3)cc2)OC1(C)C`, the Activity in data set [40] amounted to 80%. In addition, in data set [44], the pEC50 was below 6.00.

Usually GI50 stands for the concentration at which growth is held to half of that of the control. Broadly, the pIC50 is the IC50 on a negative log10 scale, so that one unit is a factor of ten. One may read the bioavailability as dose-corrected exposure relative to a reference, in per cent. As a reminder, the pEC50 is the EC50 on a negative log10 scale, so that one unit is a factor of ten.

Values taken from ChEMBL document CHEMBL5226283, “Reactive Oxygen Species (ROS)-Responsive Prodrugs, Probes, and Theranostic Prodrugs: Applications in the ROS-Related Diseases” (J Med Chem, 2021).
